Where two headings read alike, the source gives them in different places. Peptide text beside a SMILES is read from it.
Experiments:
c-MycG52 [1] = assay: UV titration, c-MycG52; assay type: binding
Description: (§1) UV titrations were recorded using an Agilent Cary-60 UV/VIS spectrometer with a 10 mm path length black-walled quartz cuvette. Oligonucleotides (c-MycC27, c-MycC52, c-MycG27, c-MycG52, DAPc, DAPg, and dsDNA; sequences listed in Supplementary Table S1) were annealed as 250 µM stock solutions in 10 mM sodium cacodylate buffer (pH 6.6) in the presence or absence of 100 mM KCl. Spectra were recorded at room temperature over a wavelength range of 300–500 nm with 1 nm intervals. Buffer-only spectra were recorded and subtracted from each dataset as blanks. Peptide ligands were prepared as 1 mM stock solutions in DMSO and added to the cuvette at a final concentration of 10 µM in buffer prior to DNA addition. DNA stock was diluted to 50 µM in buffer and was added stepwise to the peptide solution to reach 2.5 µM final concentration, followed by additions from the 250 µM DNA stock to reach final DNA concentrations of 30 or 50 µM. The absorbance at 350 nm was monitored and plotted against DNA concentration. Binding curves were fitted using a one-site binding model in GraphPad Prism version 10.1.2, and Kd values were determined from normalized data to represent the DNA-ligand bound fraction.
(§2) Despite the demonstrable importance of the extended five-tract C-rich sequence within the c-Myc promoter, most studies looking at ligand binding use the shorter sequences. […] Although the iM-targeting antibody is specific for iM as a structure, it also binds multiple types of iM-structures.

c-MycC52 [2] = settings: 10 µM DNA; for TM c-MycC52, first (lower) transition / TM c-MycC52, second (higher) transition: 10 mM NaCaco pH 6.6, 10 molar eqv. peptide, mean ± SEM (n=4); for ΔTM c-MycC52, second transition at higher temperatures / ΔTM c-MycC52, transition at lower temperatures: 10 mM sodium cacodylate pH 6.6, 10 molar equivalents peptide vs DMSO, mean ± SEM (n = 4)
Description: (§3) Circular Dichroism (CD) melting experiments were performed in a Jasco J-1500 spectropolarimeter with 10 µM DNA samples in 10 mM sodium cacodylate buffer at pH 6.6 using a 1 mm path length quartz cuvette. […] The samples were kept at 5°C for 5 min before starting the melt, with a temperature increase of 1°C/min, a 0.5°C data interval, and a 60-s holding time at each target temperature. Four scans were accumulated data pitch of 0.5 nm, a scanning speed of 200 nm/min, 1 s response time, 2 nm bandwidth, and 200 mdeg sensitivity. Furthermore, two CD melting experiment repeats were performed recording C-rich c-Myc at 288 and 320 nm, G-rich c-Myc at 264 and 320 nm, and dsDNA at 253 and 320 nm with the settings as described for full spectrum measurements. Data were zero corrected to 320 nm and baseline drift. The melting temperature (TM) was concluded using the Boltzmann or biphasic fitting curve on the folded fraction data using GraphPad Prism version 10.1.2. Data were processed as mean ± SEM (n = 4) and one-way ANOVA followed by Bonferroni post-hoc test to determine significant changes between peptides and controls.

c-MycG52 [3] = settings: 10 µM DNA; for TM c-MycG52: 10 mM NaCaco pH 6.6, 10 molar eqv. peptide, mean ± SEM (n=4); for ΔTM c-MycG52: 10 mM sodium cacodylate pH 6.6, 10 molar equivalents peptide vs DMSO, mean ± SEM (n = 4)
Description: as §3

DAPc = assay: UV titration, DAPc; assay type: binding; parameters: key to Kd DAPc, 100 mM KCl: Binding classified as non-specific (NS) showed no consistent or concentration-dependent pattern, under the tested conditions; key to Kd DAPc: NS = non-specific binding indicates where no significant pattern of binding was observed at the concentration range of the experiment; settings: for Kd DAPc: UV titration at 350 nm, 10 µM peptide, 10 mM sodium cacodylate pH 6.6, no KCl; for Kd DAPc, 100 mM KCl: UV titration, 10 mM sodium cacodylate 100 mM potassium chloride pH 6.6, two experiments
Description: as §1, §2

[4] = system: human insulin promoter (ILPR) firefly luciferase reporter in HEK293 cells; assay: Dual-luciferase reporter assay, insulin promoter (ILPR); assay type: cell-based; settings: HEK293, 4 h, 10 µM peptide with Nanocin Pro
c-MycC52 [5] = assay: UV titration, c-MycC52; assay type: binding; settings: for Kd: average of three experiments ± SD, SD; for selectivity for c-MycC52 against the complementary G4 forming sequence: from UV titration Kd values
Description: as §1, §2

[6] = UV titration at 350 nm, 10 µM peptide, 10 mM sodium cacodylate pH 6.6, no KCl, binding did not plateau at the concentration range, read-out: Kd c-MycG52
[7] = read-out: Kd c-MycG52, 100 mM KCl, UV titration, 10 mM sodium cacodylate 100 mM potassium chloride pH 6.6, average of three experiments ± SD, SD
[8] = UV titration at 350 nm, 10 µM peptide, 10 mM sodium cacodylate pH 6.6, no KCl, room temperature, read-out: Kd c-MycC52
[9] = read-out: Kd c-MycC52, 100 mM KCl, UV titration, 10 mM sodium cacodylate 100 mM potassium chloride pH 6.6

Row | SMILES | Kd (c-MycG52 [1]; [6]) [µM] | Kd (c-MycG52 [1]; [7]) [µM] | TM c-MycC52, first (lower) transition (c-MycC52 [2]; SEM) [°C] | TM c-MycC52, second (higher) transition (c-MycC52 [2]; SEM) [°C] | ΔTM c-MycC52, second transition at higher temperatures (c-MycC52 [2]; SEM) [°C] | ΔTM c-MycC52, transition at lower temperatures (c-MycC52 [2]; SEM) [°C] | TM c-MycG52 (c-MycG52 [3]) [°C] | ΔTM c-MycG52 (c-MycG52 [3]) | Kd DAPc (DAPc) | Kd DAPc, 100 mM KCl (DAPc) | insulin promoter (ILPR) reporter response [4] | Kd (c-MycC52 [5]; [8]) [nM] | selectivity for c-MycC52 against the complementary G4 forming sequence (c-MycC52 [5]) | Kd (c-MycC52 [5]; [9]) [nM] | ΔTM c-MycC52, transition at lower temperatures (c-MycC52 [2]) | decrease in TM of the more stable iM population of c-MycC52 (c-MycC52 [2]; pH 6.6, 10 molar equivalents peptide, given as a decrease, without sign) [°C]
1 | CC(=O)N[C@H](C(=O)N[C@@H](CO)C(=O)N[C@@H](CCC(=O)O)C(=O)N[C@@H](C)C(=O)N[C@@H](Cc1c[nH]c2ccccc12)C(=O)N[C@@H](CCCCN)C(=O)N[C@@H](CCC(=O)O)C(=O)N[C@H](C(=O)N[C@@H](CCCCN)C(=O)NCC(=O)N[C@@H](Cc1ccccc1)C(=O)N[C@@H](Cc1ccccc1)C(N)=O)C(C)C)C(C)C [Pep-VSE] (Ac-VSEAWKEVKGFF-NH2) | > 50 | 35 ± 3 | 33 ± 0.9 | 74 ± 0.7 | −14 ± 0.5 | −3 ± 0.2 | 48 ± 1.0 | +4 ± 0.1 °C | NS | NS | no significant change in response | 430 ± 30 | ~100 fold | 690 ± 60 |  | 
2 | CC(=O)N1CCC[C@H]1C(=O)N[C@H](C(=O)N[C@@H](CC(N)=O)C(=O)N[C@H](C(=O)N[C@@H](CO)C(=O)NCC(=O)N[C@@H](CCCNC(=N)N)C(=O)N[C@@H](CC(N)=O)C(=O)N[C@@H](Cc1ccc(O)cc1)C(=O)N[C@@H](CC(C)C)C(=O)N[C@@H](Cc1ccccc1)C(=O)N[C@@H](CS)C(N)=O)C(C)C)[C@@H](C)O [Pep-PTN] (Ac-PTNVSGRNYLFC-NH2) | > 50 | 45 ± 4 | 32 ± 2.0 | 79 ± 0.8 | −2 ± 0.3 | −1 ± 0.5 | 45 ± 1.0 | +2 ± 0.3 °C | NS | NS | no significant change in response | 930 ± 80 | about 50 fold | 1540 ± 30 | no significant change | 2 ± 0.3
